Results published in patent US20230078764A1 (Yumanity Therapeutics, Inc., priority 2019, published 2023).
Like-named read-outs stand apart in the source and are kept apart here.

Legend:
[1] = molecular target: T1, human SCD5 (Homo sapiens, UniProt Q86SK9); assay: Growth inhibition of yeast strain expressing human SCD5 as sole desaturase (OLE1 deleted), OD600 readout; format: cell-based
T1 construct: expressed in transfected cells; host or cells: yeast strain with OLE1 deleted, plasmid-borne human SCD5 (selected in SD-Ura)
T1 sequence (Q86SK9 1-330): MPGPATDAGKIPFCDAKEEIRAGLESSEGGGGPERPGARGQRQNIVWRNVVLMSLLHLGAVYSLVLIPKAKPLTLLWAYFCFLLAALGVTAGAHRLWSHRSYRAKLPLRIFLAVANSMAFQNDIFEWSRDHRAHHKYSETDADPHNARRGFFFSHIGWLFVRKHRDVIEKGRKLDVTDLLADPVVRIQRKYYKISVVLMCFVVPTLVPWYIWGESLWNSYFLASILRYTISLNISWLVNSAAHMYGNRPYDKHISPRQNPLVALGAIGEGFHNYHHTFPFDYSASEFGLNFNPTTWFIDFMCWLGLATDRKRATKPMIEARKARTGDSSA

[2] = molecular target: T2, human SCD1 (Homo sapiens, UniProt O00767); assay: Growth inhibition of yeast strain expressing human SCD1 as sole desaturase (OLE1 deleted), OD600 readout; format: cell-based
T2 construct: expressed in transfected cells; host or cells: yeast strain with OLE1 deleted, plasmid-borne human SCD1 (selected in SD-Ura)
T2 sequence (O00767 1-359): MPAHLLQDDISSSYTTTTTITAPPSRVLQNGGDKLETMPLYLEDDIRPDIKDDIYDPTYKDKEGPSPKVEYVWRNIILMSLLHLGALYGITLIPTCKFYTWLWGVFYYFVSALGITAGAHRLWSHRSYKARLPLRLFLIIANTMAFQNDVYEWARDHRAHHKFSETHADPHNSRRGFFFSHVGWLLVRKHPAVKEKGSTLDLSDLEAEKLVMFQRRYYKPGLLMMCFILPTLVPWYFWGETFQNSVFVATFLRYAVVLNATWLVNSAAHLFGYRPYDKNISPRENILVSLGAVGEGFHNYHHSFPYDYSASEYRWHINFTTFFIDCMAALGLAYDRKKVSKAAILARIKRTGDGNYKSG

[3] = yeast strain expressing human SCD5 as sole desaturase, growth (OD600) after 40 h at 30° C., read-out: SCD5 IC50
[4] = yeast strain expressing human SCD1 as sole desaturase, growth (OD600) after 40 h at 30° C., read-out: SCD1 IC50

SMILES	IC50 [1, 3]	IC50 [2, 4]	IC50 ([1]; SCD5 IC50)	IC50 ([2]; SCD1 IC50)
COc1nccc(C(=O)Nc2ccc(Cc3ccc(F)c(F)c3)cn2)n1 [Compound 486]	0.11 µM	7.8 µM		
Cn1nc(C(=O)Nc2ccc(Nc3cccc(Cl)c3)cn2)ccc1=O [Compound 367]	2.98 µM	25.8 µM		
CC(O)c1ccc(C(=O)Nc2ccc(Cc3cc(F)cc(F)c3)cn2)cn1 (stereo not shown) [Compound 513]	0.17 µM	0.77 µM		
Cn1nc(C(=O)Nc2ncc(Cc3cccc(Cl)c3)s2)ccc1=O [Compound 236, N-(5-(3-chlorobenzyl)thiazol-2-yl)-1-methyl-6-oxo-1,6-dihydropyridazine-3-carboxamide]	0.01 µM	0.01 µM		
Cn1cc(C(=O)Nc2ccc(Cc3ccc(F)c(Cl)c3)cn2)ccc1=O [Compound 60, N-(5-(3-chloro-4-fluorobenzyl)pyridin-2-yl)-1-methyl-6-oxo-1,6-dihydropyridine-3-carboxamide]			0.65 µM	4.38 µM
CN1N=C(C(=O)Nc2ncc(Cc3cccc(F)c3)o2)CCC1=O [Compound 399]	> 45 µM	> 45 µM		
N#Cc1ccc(C(=O)Nc2ccc(CNc3cccc(Cl)c3)cn2)cn1 [Compound 482]	0.62 µM	4.8 µM		
Cn1nc(C(=O)Nc2ccc(Cc3cc(F)ccc3F)cn2)ccc1=O [Compound 539]	0.17 µM	3.5 µM		
C=Cc1ncc(C(=O)Nc2ccc(Cc3cccc(Cl)c3)cn2)cc1F [Compound 333]	0.18 µM	0.11 µM		
CN1C(=O)OC[C@H]1C(=O)Nc1ccc(Cc2cccc(F)c2)cn1 [Compound 458]	> 45 µM	> 45 µM		
Cn1nc(C(=O)Nc2ccc(Oc3cc(F)cc(F)c3)cn2)ccc1=O [Compound 573]	2.3 µM	> 45 µM		
CC(=O)C1CN(C(=O)Nc2ccc(Cc3cccc(Cl)c3)cn2)C1 [Compound 403]	> 45 µM	> 45 µM		
CN1N=C(C(=O)Nc2ccc(NCc3cc(F)cc(C#N)c3)nc2)CCC1=O [Compound 439]	> 45 µM	> 45 µM		
CN1N=C(C(=O)Nc2ncc(Cc3cncc(Cl)c3)s2)CCC1=O [Compound 231, N-(5-((5-chloropyridin-3-yl)methyl)thiazol-2-yl)-1-methyl-6-oxo-1,4,5,6-tetrahydropyridazine-3-carboxamide]	3.17 µM	8.93 µM		
CN1N=C(C(=O)Nc2cnn(Cc3cccc(Cl)c3)c2)CCC1=O [Compound 405]	> 45 µM	> 45 µM		
CC(=O)Nc1ccc(/C=C/c2cccc(Cl)c2)nn1 [Compound 394]	> 45 µM	> 45 µM		
N#Cc1cncc(C(=O)Nc2ccc(Cc3cccc(F)c3)cn2)c1 [Compound 579]	0.74 µM	> 45 µM		
N#Cc1ccc(C(=O)Nc2ccc(Cc3cccc(Cl)c3)cn2)nc1 [Compound 129, N-(5-(3-chlorobenzyl)pyridin-2-yl)-5-cyanopicolinamide]	0.05 µM	> 45 µM		
COc1ccc(Cc2ccc(NC(=O)c3ccc(=O)n(C)c3)nc2)cc1F [Example 49, N-(5-(3-fluoro-4-methoxybenzyl)pyridin-2-yl)-1-methyl-6-oxo-1,6-dihydropyridine-3-carboxamide]		> 45 µM	21.2 µM	
O=C(Nc1ccc(CC2CCCCC2)cn1)c1ccc(CO)nc1 [Compound 375]	0.01 µM	0.01 µM		
O=C(Nc1ccc(Cc2cc(F)cc(F)c2)cn1)c1ccncc1 [Compound 651]	0.024 µM	0.09 µM		
O=C(Nc1ccc(Cc2cccc(Cl)c2)cn1)N1CCn2nccc2C1 [Compound 249]	6.75 µM	> 45 µM		
O=C(Nc1ccc(Cc2cccc(F)c2)cn1)c1ccc(=O)n(C2COC2)c1 [Compound 272]	13 µM	> 45 µM		
Cn1cc(C(=O)Nc2ccc(Cc3cccc(Cl)c3)cn2)ncc1=O [Compound 108, N-(5-(3-chlorobenzyl)pyridin-2-yl)-4-methyl-5-oxo-4,5-dihydropyrazine-2-carboxamide]	1.4 µM	7.61 µM		

SMILES	IC50 [1, 3]	IC50 [2, 4]	IC50 ([1]; SCD5 IC50)	IC50 ([2]; SCD1 IC50)
Cc1cc(C(=O)Nc2ccc(Cc3cccc(F)c3)cn2)c(=O)n(C)n1 [Compound 624]	0.054 µM	> 45 µM		
O=C(Nc1ccc(Cc2cccc(F)c2)cn1)c1ccc(=O)n(C2CCC2)n1 [Compound 421]	> 45 µM	> 45 µM		
O=C(Nc1ccc(Cc2cccc(Cl)c2)cn1)c1ccc(Br)nc1 [Compound 299]	3.79 µM	> 45 µM		
O=C(Nc1ccc(Cc2cc(F)cc(F)c2)cn1)c1cncc(CO)c1 [Compound 580]	0.01 µM	0.019 µM		
CCn1nc(C(=O)Nc2ccc(Cc3cc(F)cc(C#N)c3)cn2)ccc1=O [Compound 69, N-(5-(3-cyano-5-fluorobenzyl)pyridin-2-yl)-1-ethyl-6-oxo-1,6-dihydropyridazine-3-carboxamide]	0.27 µM	> 45 µM		
CN1N=C(C(=O)Nc2ccc(Cc3cccc(Cl)c3)cn2)CC1=O [Compound 105, N-(5-(3-chlorobenzyl)pyridin-2-yl)-1-methyl-5-oxo-4,5-dihydro-1H-pyrazole-3-carboxamide]	0.83 µM	> 45 µM		
CN1N=C(C(=O)Nc2ccc(Oc3ccccc3Cl)cn2)CCC1=O [Compound 156, N-(5-(2-chlorophenoxy)pyridin-2-yl)-1-methyl-6-oxo-1,4,5,6-tetrahydropyridazine-3-carboxamide]	28.1 µM	> 45 µM		
CC(C)n1nc(C(=O)Nc2ccc(Cc3cccc(Cl)c3)cn2)ccc1=O [Compound 73, N-(5-(3-chlorobenzyl)pyridin-2-yl)-1-isopropyl-6-oxo-1,6-dihydropyridazine-3-carboxamide]	0.17 µM	8.08 µM		
COc1cc(F)cc(Cc2ccc(NC(=O)c3ccc(=O)n(C)c3)nc2)c1 [Compound 52, N-(5-(3-fluoro-5-methoxybenzyl)pyridin-2-yl)-1-methyl-6-oxo-1,6-dihydropyridine-3-carboxamide]			0.13 µM	8.21 µM
Cn1nccc(NC(=O)c2ccc(Cc3cccc(F)c3)cn2)c1=O [Compound 109, 5-(3-fluorobenzyl)-N-(2-methyl-3-oxo-2,3-dihydropyridazin-4-yl)picolinamide]	0.28 µM	0.37 µM		
C#CCn1nc(C(=O)Nc2ccc(Cc3cccc(Cl)c3)cn2)ccc1=O [Compound 501]	0.01 µM	0.01 µM		
Cc1nc(NC(=O)C2=NN(C)C(=O)CC2)sc1Cc1cccc(F)c1 [Compound 219, N-(5-(3-fluorobenzyl)-4-methylthiazol-2-yl)-1-methyl-6-oxo-1,4,5,6-tetrahydropyridazine-3-carboxamide]	1.35 µM	1.58 µM		
CC(C)N1N=C(C(=O)Nc2ncc(Cc3cccc(Cl)c3)s2)CCC1=O [Compound 222, N-(5-(3-Chlorobenzyl)thiazol-2-yl)-1-isopropyl-6-oxo-1,4,5,6-tetrahydropyridazine-3-carboxamide]	2.51 µM	7.45 µM		
Cn1nc(C(=O)Nc2ccc(Cc3cc(C(F)(F)F)ccn3)cn2)ccc1=O [Compound 278]	2.03 µM	39.9 µM		
Cn1cc(C(=O)Nc2ccc(CNc3cccc(Cl)c3)cn2)ccc1=O [Compound 173, N-(5-((3-Chlorophenylamino)methyl)pyridin-2-yl)-1-methyl-6-oxo-1,6-dihydropyridine-3-carboxamide]	0.15 µM	1.72 µM		
CNC(=O)c1ccnc(C(=O)Nc2ccc(Oc3ccccc3Cl)cn2)c1 [Compound 675]	12 µM	> 45 µM		
CN1N=C(C(=O)Nc2ccc(Cc3cccc(F)c3)cc2)CCC1=O [Compound 1, N-(4-(3-fluorobenzyl)phenyl)-1-methyl-6-oxo-1,4,5,6-tetrahydropyridazine-3-carboxamide]	5.16 µM	> 45 µM		
CN1N=C(C(=O)Nc2ccc(Cc3cc(Cl)cc(Cl)c3)cn2)CCC1=O [Example 31]	0.05 µM	6.28 µM		
Cn1nc(C(=O)Nc2cncc(Cc3cccc(Cl)c3)c2)ccc1=O [Compound 426]	> 45 µM	> 45 µM		
Cn1cc(C(=O)Nc2ccc(Cc3cc(F)c(F)c(Cl)c3)cn2)ccc1=O [Compound 543]	0.01 µM	0.037 µM		
Cn1nc(C(=O)Nc2ccc(Nc3cccc(F)c3)cn2)ccc1=O [Compound 300]	5.6 µM	> 45 µM		
O=C(Nc1ccc(Cc2cccc(F)c2)cn1)c1ccn2cnnc2c1 [Compound 344]	26.3 µM	> 45 µM		
O=C(Nc1ccc(Cc2ccc(F)c(F)c2)cn1)c1ncc(CO)cn1 [Compound 603]	0.01 µM	0.01 µM		
